Assay results published in EP4371976B1, “IONIZABLE LIPIDS AND LIPID NANOPARTICLES CONTAINING THEREOF” (Certest Biotec, S.L., priority 2022, dated 2024).

How the values were obtained:
[1] = RNA encapsulation efficiency of LNPs by Quant-IT Ribogreen; format: physicochemical; details: for Encaps. efficiency (%): LNPs with luciferase mRNA, ionizable lipid:non-cationic lipid:sterol:PEG-modified lipid 50:10:38.5:1.5, percentage of RNA entrapped in the LNP
Experimental: The mRNA aqueous solution was then carefully added to the ethanol solution, and the resulted solution was homogenized by pipetting up and down for 4-5 times. The resulting LNPs were immediately diluted 1:1 with Tris buffer and dialyzed overnight against Tris buffer containing 15% sucrose. The resulting LNP solution was then collected, and the encapsulated mRNA was assessed by Quant-IT® Ribogreen (Invitrogen R11490) following the manufacturer's instructions.
(§1) The LNP solution was then adjusted to a final concentration of mRNA of 100 µg/ml. Size distribution, polydispersity and Z-potential were measured by dynamic light scattering (DLS) using Malvern Zetasizer Advance Lab Blue Label. RNA encapsulation was assessed by Quant-IT® Ribogreen following the manufacturer's instructions.

[2] = Size distribution, polydispersity and Z-potential of LNPs by dynamic light scattering (Malvern Zetasizer); format: physicochemical; details: LNPs, standard formulation 50:10:38.5:1.5; DLS
Experimental: as §1

Structure (SMILES)	Encaps. efficiency (%) [1] [%]	P.D.I. [2]	Particle size/ Ø (nm) [2] [nm]	Z Potential (± D.E.) [mV] [2] [mV]	Encaps. efficiency ([1]; Table 8, LNP 50:10:38.5:1.5, luciferase mRNA) [%]
CCCCCCCCCCCCOC(=O)CCSCCC(NC(=O)C(CCCCCC)CCCCCCCC)C(=O)NCCCN1CCCC1 (centres unmarked) [VC-LC-0245]	94.64	0.16	177.3	5.96	
CCCCCCCCCCCCCCCCCC(=O)NC(CCSCCC(=O)OCCCCCCCCCCCCC)C(=O)NC1CCN(C)CC1 (centres unmarked) [VC-LC-0435]	99.22	0.2	182.6	8.58	
CCCCCCCCC(CCCCCC)C(=O)NC(CCSCCC(=O)OCCCCCC(C)C)C(=O)NCCCN(C)C (centres unmarked) [VC-LC-0107]	100.00			0.00	
CCCCCCCCCCCCCOC(=O)CCSCCC(NC(=O)C(CCCCCCCC)CCCCCCCCCC)C(=O)NC1CCN(C)CC1 (centres unmarked) [VC-LC-0556]	54.53	0.14	156.7	-7.57	
CCCCCCCCCCCCOC(=O)CCSCCC(NC(=O)C(CCCCCC)CCCCCCCC)C(=O)NCCN1CCN(C)CC1 (centres unmarked) [VC-LC-0182]	91.18	0.22	217.1	-2.72	
CCCCCCCCC(CCCCCCCC)OC(=O)C(CCSCCC(=O)OCCCCCC(C)C)C(=O)NCCCn1ccnc1 (centres unmarked) [VC-LC-0370]	62.48	0.21	134.7	-7.08	
CCCCCCCC/C=C\CCCCCCCC(=O)NC(CCSCCC(=O)OCCCCCCCCCCCCCCCC)C(=O)NCCCN(CCO)CCO (centres unmarked) [VC-LC-0290]	56.36		266.4	-22.79	
CCCCCCCCCCCCCCCCCCCCCCOC(=O)CCSCC(CC(=O)NC1CCN(C)CC1)C(=O)OCC(CCCCCC)CCCCCCCC (centres unmarked) [VC-LC-0533]	98.35	0.19	178.1	5.74	
CCCCCCCC/C=C\CCCCCCCCOC(=O)CCSCCC(C(=O)NC1CCN(C)CC1)C(=O)OC(CCCCCCCC)CCCCCCCC (centres unmarked) [VC-LC-0443]	86.01	0.13	181.3	-2.92	86.01
CCCCCCCCCCCCCCOC(=O)CCSCCC(NC(=O)C(CCCCCC)CCCCCCCC)C(=O)NCCCN(C)C (centres unmarked) [VC-LC-0104]	100.00			0.00	
CCCCCCCCCCCCCCCCCCOC(=O)CCSCC(CC(=O)NCCCn1ccnc1)C(=O)OC(CCCCCCCC)CCCCCCCC (centres unmarked) [VC-LC-0300]	36.51	0.17	156.9	-9.75	
CCCCCCCC#CCOC(=O)CCSCCC(NC(=O)CCCCCCC/C=C\CCCCCCCC)C(=O)NCCCN1CCOCC1 (centres unmarked) [VC-LC-0354]	68.28	0.13	234.3	-0.57	
CCCCCCCCCCCCCCCCOC(=O)CCSCCC(NC(=O)C(CCCCCC)CCCCCCCC)C(=O)NC1CCN(C)CC1 (centres unmarked) [VC-LC-0216]	52.13	0.35		-20.53	
CCCCCCCCC(CCCCCC)C(=O)NC(CCSCCC(=O)OCCCCCC)C(=O)NCCCN1CCOCC1 (centres unmarked) [VC-LC-0175]	23.97	0.09	120	-15.84	
CCCCCCCCCCCCOC(=O)CCSCCC(NC(=O)C(CCCCCC)CCCCCCCC)C(=O)NCCCn1ccnc1 (centres unmarked) [VC-LC-0260]	44.25	0.18	161.7	-17.24	
CCCCCCCCCCCCCOC(=O)CCSCCC(NC(=O)C(CCCCCC)CCCCCCCC)C(=O)NCCCN(C)C (centres unmarked) [VC-LC-0099]	98.48			0.00	

Structure (SMILES)	Encaps. efficiency (%) [1] [%]	P.D.I. [2]	Particle size/ Ø (nm) [2] [nm]	Z Potential (± D.E.) [mV] [2] [mV]	Encaps. efficiency ([1]; Table 8, LNP 50:10:38.5:1.5, luciferase mRNA) [%]
CCCCCCCCC(CCCCCC)COC(=O)C(CSCCC(=O)OCCCCCCCC(C)C)CC(=O)NC1CCN(C)CC1 (centres unmarked) [VC-LC-0526]	97.90	0.16	124.7	3.68	
CCCCCCCC/C=C\CCCCCCCC(=O)NC(CCSCCC(=O)OCCCCCC(C)C)C(=O)NCCCN(CCO)CCO (centres unmarked) [VC-LC-0293]	92.48	0.13	178.6	12.29	
CCCCCCCCOC(=O)CCSCCC(NC(=O)C(CCCCCC)CCCCCCCC)C(=O)NCCCn1ccnc1 (centres unmarked) [VC-LC-0269]	36.60	0.15	176.7	-10.28	
CCCCCCCCCCCCCCCCCCCCCCOC(=O)CCSCC(CC(=O)NCCCn1ccnc1)C(=O)OC(CCCCCCCC)CCCCCCCC (centres unmarked) [VC-LC-0304]	54.05	0.26		-23.20	
CCCCCCCCC(CCCCCC)C(=O)NC(CCSCCC(=O)OCCCCCC(C)C)C(=O)NCCN1CCN(C)CC1 (centres unmarked) [VC-LC-0186]	86.70	0.18	158.7	3.38	
CCCCCCCCC(CCCCCC)C(=O)NC(CCSCCC(=O)OCC(CC)CCCC)C(=O)NC1CCN(C)CC1 (centres unmarked) [VC-LC-0212]	83.35	0.26	179	-20.85	
CCCCCCCCCCCCCCCCOC(=O)CCSCCC(NC(=O)C(CCCCCC)CCCCCCCC)C(=O)NCCCN(C)C (centres unmarked) [VC-LC-0106]	98.70			0.00	
CCCCCCCCC(CCCCCC)C(=O)NC(CCSCCC(=O)OCCCCCCCC(C)C)C(=O)NCCCN1CCOCC1 (centres unmarked) [VC-LC-0165]	45.16	0.21	181.9	-26.69	
CCCCCCCCCCCCCCCCOC(=O)CCSCCC(NC(=O)C(CCCCCC)CCCCCCCC)C(=O)NCCCN(CCO)CCO (centres unmarked) [VC-LC-0201]	86.70		259.7	2.80	
CCCCCCCC/C=C\CCCCCCCC(=O)NC(CCSCCC(=O)OCCCCCCCCCCCCC)C(=O)NC1CCN(C)CC1 (centres unmarked) [VC-LC-0322]	97.01	0.17	220.5	2.31	
CCCCCCCCCCCCCCCCCCCCCCOC(=O)CCSCCC(C(=O)NCCCn1ccnc1)C(=O)OC(CCCCCCCC)CCCCCCCC (centres unmarked) [VC-LC-0363]	63.87	0.18	143.9	-17.92	
CCCCCCCCCCCCCCCCOC(=O)CCSCC(CC(=O)NC1CCN(C)CC1)C(=O)OCC(CCCCCC)CCCCCCCC (centres unmarked) [VC-LC-0531]	98.54	0.19	158.6	9.15	
CCCCCCCCC(CCCCCC)C(=O)NC(CCSCCC(=O)OCCCCCCCC(C)C)C(=O)NCCCN1CCCC1 (centres unmarked) [VC-LC-0243]	93.35	0.18	197.6	2.43	
CCCCCCCCCCCCCCCCCCOC(=O)CCSCC(CC(=O)NC1CCN(C)CC1)C(=O)OCC(CCCCCC)CCCCCCCC (centres unmarked) [VC-LC-0530]	97.41	0.26	164	7.65	
CCCCCCCCC(CCCCCC)C(=O)NC(CCSCCC(=O)OCC(CC)CCCC)C(=O)NCCCN1CCOCC1 (centres unmarked) [VC-LC-0166]	42.53	0.11	164.8	-24.55	
